Data reported in patent US20200399642A1, “METHODS AND COMPOSITIONS FOR TREATING AND PREVENTING METASTATIC TUMORS” (IMMUNE PHARMACEUTICALS, INC., priority 2017, published 2020).
Read-outs that look alike come from different tables or passages of the source.

How the values were obtained:
B16F10 cells = assay: Lung metastasis after i.v. inoculation of B16F10 melanoma cells; format: in vivo, mouse; settings: for number of lung metastases: 3 weeks
Experimental: (§1) C57BL/6 mice were obtained from The Charles River Laboratories. B6.129S6-Cybb^tm1Din(Nox2^−/− or Nox2-KO) mice that lack the myeloid gp91^phox subunit NOX2 and, thus, a functional ROS-forming NOX2 were obtained from The Jackson Laboratory. […] Naïve C57BL/6, Nox2-KO, and Ifng-KO mice (6-12 weeks of age) were treated intraperitoneally (i.p.) with PBS (control), HDC (Sigma, 1,500 μg/mouse), IL15 (0.04 μg/mouse), alone or combined, on the day before, the day after, and 3 days after intravenous (i.v.) inoculation of B16F10 cells (5×10^4-15×10^4 cells/mouse) or B16F1 cells (20×10^4-30×10^4 cells/mouse). Three weeks after tumor inoculation, mice were euthanized by cervical dislocation followed by harvesting of lungs and spleens. Lung metastasis was determined by counting visible pulmonary metastatic foci under a light microscope. The experimental design is outlined in FIG. 1A.
Gr1^+ cells were depleted by i.p. injections of 400 μg anti-Gr1 antibody (BioXCell, Clone RB6-8C5) 2 days before B16 cell inoculation. […] NK cells were depleted by i.p. injections of 250 μg anti-NK1.1 antibody (BioXCell, Clone PK136) 4 days and 2 days before B16F10 cell inoculation.
Spleens were harvested from WT C57BL/6 mice and single-cell suspensions were prepared. Splenocytes were enriched for NK cells by passage through nylon wool columns (Polysciences). NK cells were then negatively selected using an NK-cell isolation kit II (Miltenyi Biotech) according to the manufacturer's instructions to a purity of >70%. Five million enriched NK cells were injected i.v. 12 hours before inoculation of B16F10 cells. WT NK cells in Ifng^−/− mice were detected 2 days after adoptive transfer by collecting peripheral blood followed by DNA extraction and PCR. The primer pair used for detection of WT Ifng was 5′ […] 3′ (SEQ ID NO:02) and 5′ […] 3′ (SEQ ID NO:03). For detection of the disrupted IFNγ gene (Ifng−/−) the primer pair 5′ […] 3′ (SEQ ID NO:04) and 5′ […] 3′ (SEQ ID NO:05) was used.

B16F1 cells = settings: 200,000 cells in WT, 300,000 in Nox2-/- mice; 3 weeks
Experimental: as §1

NK cells = settings: WT mice, 3 weeks after tumor cell inoculation; % of live CD45+ cells
Experimental: as §1

lung NK cells = assay: IFNγ production ex vivo in cocultures of lung cells and B16 cells (ELISA); set-up: species or system mouse; settings: WT mice treated with HDC in vivo; lungs 30 minutes after B16F10 inoculation; coculture with B16 cells
Experimental: Mice were pretreated with HDC (1,500 μg) or PBS on the day before i.v. inoculation of B16F10 cells. Thirty minutes after tumor cell inoculation mice were sacrificed and single-cell lung cell suspensions were prepared. Lung cells were cocultured overnight with B16 cells (500,000 cells/mL) in flat bottom 96-well plates at effector:target cell ratios of 1:1 to 50:1. Supernatants were collected after 24 hours and the IFNγ content was determined by ELISA (Mouse IFNγ DuoSet ELISA, R&D Systems).

[1] = system: ROS production of WT lung cells; settings: in vitro, HDC 10-1,000 μmol/L added 5 minutes before WKYMVm
Experimental: (§2) Superoxide anion production was determined by use of the isoluminol-electrogenerated chemiluminescence technique as described elsewhere. Briefly, single-cell suspensions of lungs were diluted to 10^7 cells/mL in Krebs-Ringer glucose buffer supplemented with isoluminol (10 mg/mL; Sigma-Aldrich) and horseradish peroxidase (HRP, 4 U/mL, Boehringer) and added to 96-well plates that were incubated at 37° C. Phorbol myristate acetate (PMA, 5×10^−8 M, Sigma-Aldrich) or the formyl peptide receptor agonist Trp-Lys-Tyr-Met-Val-D-Met (WKYMVm) (10^−5 M, Tocris Bioscience) were added for induction of ROS production. Light emission was recorded continuously using a FLUOstar Omega plate reader (BMG). In some experiments, HDC (10-1,000 μmol/L, final concentrations) was added 5 minutes prior to the addition of WKYMVm.

[2] = system: ROS formation of lung cell suspensions; settings: mice pretreated with HDC the day before B16 inoculation; PMA; 30 minutes and 24 hours
Experimental: (§3) For assessment of the impact of NOX2 inhibition on immune parameters during the early phase of tumor progression, mice received HDC at 1,500 μg/mouse or PBS (control) 1 day before the inoculation of B16F10 cells followed by dissection of lungs at 30 minutes or 24 hours after tumor cell inoculation as shown in FIG. 2A.
(§4) Lung tissues were dissociated into single cells by combining enzymatic degradation of extracellular matrix with mechanical dissociation using gentle MACS Technology (Miltenyi Biotech) based on instructions provided by the manufacturer.
as §2

CD11b+Gr1+ myeloid cells = settings: WT mice, HDC 24 hours before B16F10 inoculation
Experimental: as §3, §4
The following fluorochrome-labeled antimouse mAbs were purchased from BD Biosciences: anti-CD45 (30-F11), anti-CD11c (HL3), anti-IaIe (2G9), anti-CD3 (145-2311), anti-CD4 (RM4-5), anti-CD8 (53-6.7), anti-NK1.1 (PK136), anti-CD19 (1D3), anti-CD11b (M1/70), anti-Gr1 (RB6-8C5), anti-CD40 (3/23), and anti-Ly6C (AL-21). Anti-CD33 (29A1.4) was from Ebiosciences; anti-F4/80 (BM8) and anti-CD69 (H1.2F3) were from BioLegend. LIVE/DEAD Fixable Yellow Dead Cell Stain Kit or DAPI (both from Invitrogen) were used as cell viability markers in flow cytometry analyses. A minimum of 100,000 gated live cells were collected on a four-laser BD LSRFortessa (405, 488, 532, and 640 nm). Data were analyzed using FACSDiva Version 8.0.1 software (BD Biosciences).

murine melanoma cells = settings: in vivo administration; cited from earlier work
melanoma = settings: other melanoma models; cited from earlier work
[3] = system: B-RAF- and K-RAS-induced lung cancer; settings: mouse models of B-RAF- and K-RAS-induced lung cancer; cited from earlier work
[4] = system: xenografted human melanoma cells; settings: immunodeficient mice; cited from earlier work
[5] = Nox2-KO mice, 150,000 B16F10 cells i.v., i.p. treatment days -1, 1, 3
[6] = WT mice, 100,000 B16F10 cells i.v., i.p. treatment days -1, 1, 3 (HDC 1,500 μg/mouse, IL15 0.04 μg/mouse)

Compound | lung metastasis (B16F10 cells; Gr1+-depleted WT mice, B16F10) | antimetastatic efficacy of HDC (B16F10 cells; Ifng-KO mice after adoptive transfer of IFNγ-producing WT NK cells) | antimetastatic efficacy of HDC (B16F10 cells; Ifng-KO mice after adoptive transfer of Ifng-KO NK cells) | melanoma metastasis (B16F10 cells; Ifng-KO mice, B16F10) | number of lung metastases (B16F10 cells; [5]) | number of lung metastases (B16F10 cells; [6]) | melanoma metastasis (B16F10 cells; animals depleted of NK cells (anti-NK1.1), WT and Nox2-/-, B16F10) | lung metastasis formation by B16F1 (B16F1 cells) | NK-cell counts in lungs (NK cells) | IFNγ produced ex vivo by lung NK cells (lung NK cells) | ROS formation from WT lung cells [1] | ROS formed ex vivo in lung cell suspensions [2] | degree of influx of myeloid cells into lungs (CD11b+Gr1+ myeloid cells) | subcutaneous growth of EL-4 thymoma tumors (EL-4 thymoma tumors; Nox2-KO mice) | subcutaneous growth of EL-4 thymoma tumors (EL-4 thymoma tumors; WT mice) | tumorigenicity of murine melanoma cells (murine melanoma cells) | lymph node metastasis (melanoma) | tumor progression [3] | metastasis of xenografted human melanoma cells [4]
Cl.Cl.NCCc1c[nH]cn1 [HDC, histamine dihydrochloride] | did not affect metastasis | significantly restored the antimetastatic efficacy | but not the transfer of Ifng-KO NK cells | did not reduce melanoma metastasis | not observed | decreased the number of lung metastases | did not inhibit melanoma metastasis | NOX2-dependent, antimetastatic effect | increased NK-cell counts in lungs | higher concentrations of IFNγ | dose-dependently suppressed | reduced | did not alter | but not in Nox2-KO mice | reduces the subcutaneous growth | – | – | – | –
CC(=O)N[C@@H](CS)C(=O)O [N-acetyl-cysteine] | – | – | – | – | – | – | – | – | – | – | – | – | – | – | – | reduces the tumorigenicity | enhances lymph node metastasis | accelerates tumor progression | accelerates the metastasis
IL15: NK cell-activating cytokine IL15 | – | – | – | – | exerted antimetastatic activity | exerted antimetastatic activity | – | – | – | – | – | – | – | – | – | – | – | – | –
